Measurements reported in patent US11834450B2, “Compounds having ((3-nitrophenyl)sulfonyl)acetamide as BCL-2 inhibitors” (Eil Therapeutics, Inc., priority 2021, dated 2023).

Tests used:
BCL-XL = target: T1, BCL-XL (Homo sapiens, UniProt Q07817); test: BCL-XL TR-FRET Assay (primary PPI inhibition); type: binding; conditions: 60 min incubation; read-out: BCLxL (IC50 code, BCL-XL TR-FRET)
T1 construct: purchased BPS Bioscience #50223
Summary of the method: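 TR-FRET readout (ex 340 nm; em 620/665 nm; 60 μs delay, 500 μs integration) after a 60 min incubation. Mix: compound, 10.5 ng BCL-XL, BCL-XL peptide ligand at 1:80, plus anti-His Tb donor and dye acceptor each at 1:100.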

BCL-2 = target: T2, BCL-2 (Homo sapiens, UniProt P10415); test: BCL-2 TR-FRET Assay (primary PPI inhibition); type: binding; conditions: 60 min incubation; read-out: BCL2 (IC50 code, BCL-2 TR-FRET)
T2 construct: purchased BPS Bioscience #50222
T2 sequence (P10415 whole entry): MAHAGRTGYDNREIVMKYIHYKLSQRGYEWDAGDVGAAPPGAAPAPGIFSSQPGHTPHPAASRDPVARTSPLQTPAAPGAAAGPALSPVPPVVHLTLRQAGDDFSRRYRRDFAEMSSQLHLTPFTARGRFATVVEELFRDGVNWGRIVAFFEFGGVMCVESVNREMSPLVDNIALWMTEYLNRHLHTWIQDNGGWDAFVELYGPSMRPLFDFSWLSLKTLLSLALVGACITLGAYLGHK

RS4-11 cells = test: Cell viability assay RS4-11 (CellTiter-Glo); type: cell-based; conditions: Homo sapiens, 72 h; RS4-11 cells, 3 days, CellTiter-Glo; read-out: RS4-11 (CC50 code)
Summary of the method: (§1)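 Cells were seeded at 2000/well (HEK293, in DMEM, pre-incubated a day) or 4000/well (other lines, in RPMI-1640). Serially diluted compound was added and plates incubated 3 days at 37 °C, with viability read by CellTiter-Glo luminescence.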

[1] = Cell viability assay HEK293 (CellTiter-Glo); type: cell-based; conditions: human, HEK293 cells, read-out: HEK293 (CC50 code)
Summary of the method: as §1

[2] = test system: caspase-3 and -7 activities in RS4-11 cells; test: Cas-3/7 activation (Caspase-Glo 3/7) in RS4-11 cells; type: cell-based; conditions: Homo sapiens, 3.5 h at 37° C. and 30 min at r.t., read-out: Cas-3/7 (EC50 code)
Summary of the method: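 RS4-11 cells were exposed to graded compound concentrations for 3.5 h at 37° C/5% CO2, then 30 min at room temperature. Caspase-3/7 activity was measured by luminescence after 30 min with a DEVD luminogenic substrate reagent.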

MOLT-4 cells = test: Cell viability assay MOLT-4 (CellTiter-Glo); type: cell-based; conditions: Homo sapiens, 72 h; MOLT-4 cells, 3 days, CellTiter-Glo; read-out: MOLT-4 (CC50 code)
Summary of the method: as §1

T1 sequence (Q07817 whole entry): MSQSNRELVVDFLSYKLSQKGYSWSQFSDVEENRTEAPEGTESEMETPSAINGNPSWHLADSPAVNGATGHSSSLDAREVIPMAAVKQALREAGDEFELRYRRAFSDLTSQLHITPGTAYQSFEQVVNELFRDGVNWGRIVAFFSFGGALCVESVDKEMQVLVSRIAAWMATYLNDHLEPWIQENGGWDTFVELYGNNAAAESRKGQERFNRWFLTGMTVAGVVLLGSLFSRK

IC50 (BCL-XL) [nM] | IC50 (BCL-2) [nM] | EC50 [2] [nM] | Compound | CC50 (RS4-11 cells) [nM] | CC50 at 3 days [1] [nM] | CC50 (MOLT-4 cells) [nM]
2000 to 4000 | 10 to 50 | > 250 | O=C(NS(=O)(=O)c1ccc(NCC2CCOCC2)c([N+](=O)[O-])c1)c1ccc(N2CCC(CN3C(=O)C4(CCNCC4)C3c3ccc(Cl)cc3)CC2)cc1Oc1cnc2[nH]ccc2c1 (stereo not drawn) [Compound 56, 4-[4-[[1-(4-chlorophenyl)-3-oxo-2,7-diazaspiro[3.5]nonan-2-yl]methyl]-1-piperidyl]-N-[3-nitro-4-(tetrahydropyran-4-ylmethylamino)phenyl]sulfonyl-2-(1H-pyrrolo[2,3-b]pyridin-5-yloxy)benzamide] | > 200 | > 25000 | > 10000
> 4000 | > 50 | > 250 | O=C(NS(=O)(=O)c1ccc(NCC2CCOCC2)c([N+](=O)[O-])c1)c1ccc(N2CCN(C[C@@H]3Cc4ccccc4CN3C(=O)c3ccsc3)CC2)cc1Oc1cnc2[nH]ccc2c1 [Compound 36, N-[3-nitro-4-(tetrahydropyran-4-ylmethylamino)phenyl]sulfonyl-2 (1H-pyrrolo[2,3-b]pyridin-5-yloxy)-4-[4-[[(3S)-2-(thiophene-3 carbonyl)-3,4-dihydro-1H-isoquinolin-3-yl]methyl]piperazin 1-yl]benzamide] | > 200 | 10000 to 25000 | 2000 to 10000
> 4000 | > 50 | > 250 | O=C(NS(=O)(=O)c1ccc(NC2CCS(=O)(=O)CC2)c([N+](=O)[O-])c1)c1ccc(N2CCC(CN3CCCCC3c3ccc(Cl)cc3)CC2)cc1Oc1cnc2[nH]ccc2c1 (stereo not drawn) [Compound 79, 4-[4-[[2-(4-chlorophenyl)-1-piperidyl]methyl]-1-piperidyl]-N-[4-[(1,1-dioxothian-4-yl)amino]-3-nitro-phenyl]sulfonyl-2-(1H-pyrrolo[2,3-b]pyridin-5-yloxy)benzamide] | > 200 | > 25000 | 2000 to 10000
